From patent EP0284935A1, “5-Substituted quinolone- and naphthyridone carboxylic acid derivatives” (BAYER AG, priority 1987, dated 1988) come the findings set out here.

Converted amounts (≈) assume the structure as drawn.

What all share (experiment): Agar dilution test, minimum inhibitory concentration
What all share (type): cell-based

The test system of assay [1] is Providencia 12052. Particulars: test strain Providencia 12052; Isosensitest-Agar (Oxoid), inoculum ca. 10^4 germs per inoculation point; read-out: Minimale Hemmkonzentrationen.
In assay [2] the test system is Enteroc. 27101. As to conditions: test strain Enteroc. 27101; Isosensitest-Agar (Oxoid), inoculum ca. 10^4 germs per inoculation point; read-out: Minimale Hemmkonzentrationen.
Assay [3] concerns Proteus vulg. 1017. As to conditions: test strain Proteus vulg. 1017; Isosensitest-Agar (Oxoid), inoculum ca. 10^4 germs per inoculation point; read-out: Minimale Hemmkonzentrationen.
Assay [4] deals with Klebsiella 8085. As to conditions: test strain Klebsiella 8085; Isosensitest-Agar (Oxoid), inoculum ca. 10^4 germs per inoculation point; read-out: Minimale Hemmkonzentrationen.
The test system of assay [5] is E.coli 455/7. As to conditions: Escherichia coli; test strain E.coli 455/7; Isosensitest-Agar (Oxoid), inoculum ca. 10^4 germs per inoculation point; read-out: Minimale Hemmkonzentrationen.
In assay [6] the test system is Serratia 16040. As to conditions: test strain Serratia 16040; Isosensitest-Agar (Oxoid), inoculum ca. 10^4 germs per inoculation point; read-out: Minimale Hemmkonzentrationen.
The test system of assay [7] is Morg. morg. 11006. As to conditions: test strain Morg. morg. 11006; Isosensitest-Agar (Oxoid), inoculum ca. 10^4 germs per inoculation point; read-out: Minimale Hemmkonzentrationen.
Assay [8] has as its system Enteroc. 9790. As to conditions: test strain Enteroc. 9790; Isosensitest-Agar (Oxoid), inoculum ca. 10^4 germs per inoculation point; read-out: Minimale Hemmkonzentrationen.
The test system of assay [9] is Morg. morg. 932. As to conditions: test strain Morg. morg. 932; Isosensitest-Agar (Oxoid), inoculum ca. 10^4 germs per inoculation point; read-out: Minimale Hemmkonzentrationen.
Assay [10] has as its system Staph. FK 422. As to conditions: test strain Staph. FK 422; Isosensitest-Agar (Oxoid), inoculum ca. 10^4 germs per inoculation point; read-out: Minimale Hemmkonzentrationen.
Assay [11] relates to E.coli Neumann. Particulars: Escherichia coli; test strain E.coli Neumann; Isosensitest-Agar (Oxoid), inoculum ca. 10^4 germs per inoculation point; read-out: Minimale Hemmkonzentrationen.
Assay [12] relates to Pseudomonas Walter. As to conditions: test strain Pseudomonas Walter; Isosensitest-Agar (Oxoid), inoculum ca. 10^4 germs per inoculation point; read-out: Minimale Hemmkonzentrationen.
The subject of assay [13] is Staph. 1756. As to conditions: test strain Staph. 1756; Isosensitest-Agar (Oxoid), inoculum ca. 10^4 germs per inoculation point; read-out: Minimale Hemmkonzentrationen.
The test system of assay [14] is Proteus mir. 8223. As to conditions: test strain Proteus mir. 8223; Isosensitest-Agar (Oxoid), inoculum ca. 10^4 germs per inoculation point; read-out: Minimale Hemmkonzentrationen.
The test system of assay [15] is Pseudomonas Ellsworth. Particulars: test strain Pseudomonas Ellsworth; Isosensitest-Agar (Oxoid), inoculum ca. 10^4 germs per inoculation point; read-out: Minimale Hemmkonzentrationen.
The test system of assay [16] is Klebsiella 63. Particulars: test strain Klebsiella 63; Isosensitest-Agar (Oxoid), inoculum ca. 10^4 germs per inoculation point; read-out: Minimale Hemmkonzentrationen.
Assay [17] deals with E.coli A261. Particulars: Escherichia coli; test strain E.coli A261; Isosensitest-Agar (Oxoid), inoculum ca. 10^4 germs per inoculation point; read-out: Minimale Hemmkonzentrationen.
For assay [18], the system named is Staph. 133. Particulars: test strain Staph. 133; Isosensitest-Agar (Oxoid), inoculum ca. 10^4 germs per inoculation point; read-out: Minimale Hemmkonzentrationen.
Assay [19] has as its system Providencia 12012. Particulars: test strain Providencia 12012; Isosensitest-Agar (Oxoid), inoculum ca. 10^4 germs per inoculation point; read-out: Minimale Hemmkonzentrationen.
The subject of assay [20] is Proteus mir. 8175. Particulars: test strain Proteus mir. 8175; Isosensitest-Agar (Oxoid), inoculum ca. 10^4 germs per inoculation point; read-out: Minimale Hemmkonzentrationen.

Turning to `CN1CCN(c2c(F)c(N)c3c(=O)c(C(=O)O)cn(C4CC4)c3c2F)CC1` [Beispiel 19, 5-Amino-1-cyclopropyl-6,8-difluor-1,4-dihydro-7-(4-methyl-1-piperanyl)-4-oxo-3-chinolincarbonsäure], the MIC in assay [1] was 1 µg/mL (≈ 2.64 µM); in assay [2], 0.25 µg/mL (≈ 0.661 µM); in assay [3], 0.06 µg/mL (≈ 0.159 µM); in assay [4], 0.03 µg/mL (≈ 0.0793 µM); in [5] it was 1 µg/mL (≈ 2.64 µM); in assay [6], 4 µg/mL (≈ 10.6 µM). In addition, the MIC in [7] was determined as 0.06 µg/mL (≈ 0.159 µM); in assay [8] it was 0.25 µg/mL (≈ 0.661 µM); in [9] it was 0.03 µg/mL (≈ 0.0793 µM); in assay [10] it was 0.03 µg/mL (≈ 0.0793 µM); in assay [11] it was 0.03 µg/mL (≈ 0.0793 µM); in assay [12], 0.5 µg/mL (≈ 1.32 µM). For the same compound, the MIC in assay [13] came to 0.06 µg/mL (≈ 0.159 µM); in assay [14], 0.25 µg/mL (≈ 0.661 µM); in assay [15], 0.06 µg/mL (≈ 0.159 µM); in assay [16] it was 0.03 µg/mL (≈ 0.0793 µM); in assay [17], 0.25 µg/mL (≈ 0.661 µM); in assay [18] it was 0.06 µg/mL (≈ 0.159 µM). In addition, the MIC in assay [19] was found to be 0.06 µg/mL (≈ 0.159 µM).

In the case of `Nc1c(F)c(-n2ccnc2)c(F)c2c1c(=O)c(C(=O)O)cn2C1CC1` [Beispiel 30, 5-Amino-1-cyclopropyl-6,8-difluor-1,4-dihydro-7-(1-imidazolyl)-4-oxo-3-chinolincarbonsäure-methansulfonat], the MIC in [1] amounted to 4 µg/mL (≈ 11.6 µM); in assay [2], 0.25 µg/mL (≈ 0.722 µM); in assay [4] it was 0.03 µg/mL (≈ 0.0866 µM); in assay [5], 16 µg/mL (≈ 46.2 µM); in [6], 8 µg/mL (≈ 23.1 µM); in assay [7], 0.06 µg/mL (≈ 0.173 µM). For the same compound, the MIC in assay [8] worked out at 0.25 µg/mL (≈ 0.722 µM); in assay [11], 0.03 µg/mL (≈ 0.0866 µM); in assay [12], 2 µg/mL (≈ 5.78 µM); in assay [14], 2 µg/mL (≈ 5.78 µM); in [20], 0.06 µg/mL (≈ 0.173 µM); in assay [15] it was 0.25 µg/mL (≈ 0.722 µM). For the same compound, the figures for the MIC in assay [16], in assay [17] and in [18] were 0.06 µg/mL (≈ 0.173 µM), 2 µg/mL (≈ 5.78 µM) and 0.03 µg/mL (≈ 0.0866 µM), respectively.

With `Nc1c(F)c(N2CCOCC2)c(F)c2c1c(=O)c(C(=O)O)cn2C1CC1` [Beispiel 26, 5-Amino-1-cyclopropyl-6,8-difluor-1,4-dihydro-7-morpholino-4-oxo-3-chinolincarbonsäure], the MIC was 8 µg/mL (≈ 21.9 µM) in assay [1]; 0.25 µg/mL (≈ 0.684 µM) in [2]; 0.03 µg/mL (≈ 0.0821 µM) in [3]; 0.06 µg/mL (≈ 0.164 µM) in assay [4]; 16 µg/mL (≈ 43.8 µM) in assay [5]; 8 µg/mL (≈ 21.9 µM) in [6]. Moreover, the MIC is 0.25 µg/mL (≈ 0.684 µM) in assay [8]; 0.03 µg/mL (≈ 0.0821 µM) in [9]; 0.03 µg/mL (≈ 0.0821 µM) in assay [10]; 0.03 µg/mL (≈ 0.0821 µM) in assay [11]; 2 µg/mL (≈ 5.47 µM) in [12]; 0.03 µg/mL (≈ 0.0821 µM) in [13]. The MIC in assay [14] amounted to 0.5 µg/mL (≈ 1.37 µM); in assay [15], 0.03 µg/mL (≈ 0.0821 µM); in assay [16] it was 0.06 µg/mL (≈ 0.164 µM); in assay [17], 4 µg/mL (≈ 10.9 µM); in [18] it was 0.03 µg/mL (≈ 0.0821 µM); in assay [19], 0.06 µg/mL (≈ 0.164 µM).
